Here are results for eight molecules from ChEMBL document CHEMBL1275506, “Expanded-spectrum beta-lactamase PER-1 in an environmental Aeromonas media isolate from Switzerland” (2008).

Common to all, as to format: functional
For test [1], the system named is Aeromonas sp. Description: Antibacterial activity against Aeromonas sp. isolate A72 by Etest.
The test system of test [2] is Escherichia coli. Description: Antibacterial activity against Escherichia coli J53 harboring plasmid pAM carrying beta-lactamase PER-1 by Etest.
Test [3] relates to Escherichia coli. Nature of the test: Antibacterial activity against Escherichia coli J53 by Etest.
The subject of test [4] is Aeromonas sp. Description: Antibacterial activity against Aeromonas sp. isolate A72 by Etest in presence of clavulanic acid.
Test [5] has as its system Escherichia coli. Nature of the test: Antibacterial activity against Escherichia coli J53 harboring plasmid pAM carrying beta-lactamase PER-1 by Etest in presence of clavulanic acid.
Test [6] has as its system Escherichia coli. Nature of the test: Antibacterial activity against Escherichia coli J53 by Etest in presence of clavulanic acid.

Values after ≈ are worked out from the molar mass of the structure shown. Bounds are passed on as bounds.

For the molecule `CC1(C)S[C@@H]2[C@H](NC(=O)[C@H](N)c3ccc(O)cc3)C(=O)N2[C@H]1C(=O)O` [AMOXICILLIN], the MIC (usually the lowest concentration found to suppress growth) is above 256 µg/mL in test [1]; above 256 µg/mL in test [2]; 4 µg/mL (≈ 10.9 µM) in test [3]; 8 µg/mL in test [4]; 4 µg/mL in test [5]; 4 µg/mL in test [6].

Turning to `CO/N=C(\C(=O)N[C@@H]1C(=O)N2C(C(=O)[O-])=C(C[N+]3(C)CCCC3)CS[C@H]12)c1csc(N)n1` [CEFEPIME], the figures for the MIC in test [1] and in test [2] were 4 µg/mL (≈ 8.32 µM) and 8 µg/mL (≈ 16.6 µM), respectively.

For the molecule `CO/N=C(\C(=O)N[C@@H]1C(=O)N2C(C(=O)O)=C(COC(C)=O)CS[C@H]12)c1csc(N)n1` [CEFOTAXIME], the values for the MIC in test [1], in test [2] and in test [3] were above 32 µg/mL, above 32 µg/mL and 0.06 µg/mL (≈ 0.132 µM), respectively.

As for `CO[C@@]1(NC(=O)Cc2cccs2)C(=O)N2C(C(=O)O)=C(COC(N)=O)CS[C@@H]21` [CEFOXITIN], the MIC in test [1], in test [2] and in test [3] was 2 µg/mL (≈ 4.68 µM) throughout.

For `CC(C)(O/N=C(\C(=O)N[C@@H]1C(=O)N2C(C(=O)[O-])=C(C[n+]3ccccc3)CS[C@H]12)c1csc(N)n1)C(=O)O` [CEFTAZIDIME], the MIC was above 256 µg/mL in test [1], above 256 µg/mL in test [2] and 0.06 µg/mL (≈ 0.11 µM) in test [3].

Take `CC(=O)OCC1=C(C(=O)O)N2C(=O)[C@@H](NC(=O)Cc3cccs3)[C@H]2SC1` [CEPHALOTHIN]: the MIC is above 64 µg/mL in test [1], above 64 µg/mL in test [2] and 8 µg/mL (≈ 20.2 µM) in test [3].

On to `C[C@@H](O)[C@H]1C(=O)N2C(C(=O)O)=C(SCCNC=N)C[C@H]12` [IMIPENEM ANHYDROUS], for which the MIC in test [1] and in test [2] was 0.25 µg/mL (≈ 0.835 µM) in each case.

Consider `CC1(C)S[C@@H]2[C@H](NC(=O)[C@H](C(=O)O)c3ccsc3)C(=O)N2[C@H]1C(=O)O` [TICARCILLIN], for which the minimum inhibitory concentration (MIC) in test [1] is above 256 µg/mL; in test [2], above 256 µg/mL; in test [3] it was 4 µg/mL (≈ 10.4 µM); in test [4], 128 µg/mL; in test [5] it was 8 µg/mL; in test [6], 4 µg/mL.
